Earlier results in patent US12642292B2, “Multi-compartment oral pouched product” (NICOVENTURES TRADING LIMITED, priority 2021, dated 2026).

Assays:
[1] = for solubility in water / aqueous environment: for CBD aqueous environment (e.g., saliva)
[2] = when isolated; converts via isomerization into trans-bixin

Row | SMILES | solubility in water / aqueous environment [1] | chemical stability [2] | solubility in fats and alcohols ([1]; fats and alcohols)
1 | CC(/C=C/C=C(C)/C=C/C(=O)O)=C\C=C\C=C(C)\C=C\C=C(C)\C=C\C(=O)O (stereo in doubt) [norbixin, (2E,4E,6E,8E,10E,12E,14E,16E,18E)-4,8,13,17-tetramethylicosa-2,4,6,8,10,12,14,16,18-nonaenedioic acid] | water soluble |  | 
2 | C=C(C)[C@@H]1CCC(C)=C[C@H]1c1c(O)cc(CCCCC)cc1O [CBD, cannabidiol, reference compound] | insoluble in an aqueous environment |  | 
3 | COC(=O)/C=C/C(C)=C\C=C\C(C)=C\C=C\C=C(C)\C=C\C=C(C)\C=C\C(=O)O [bixin] | insoluble in water | chemically unstable when isolated | soluble in fats and alcohols
